Five compounds from patent US6506555B1, “Use of HIV protease inhibiting compounds” (Institut National de la Sante et de la Recherche Medicale …, priority 1998, dated 2003) can be followed below.

In data set [1] the target is T1, 20S proteasomes isolated from murine B8 fibroblasts (Mus musculus, UniProt O55234+P70195+Q60692).
T1 construct: 20S proteasomes isolated from murine B8 fibroblasts; endogenous in cells; host or cells: murine B8 fibroblasts; 20S proteasome purified from the cells
Put plainly: Hydrolysis of fluorogenic substrates by isolated 20S proteasomes. It is filed as biochemical. Particulars: for "chimotrypsin-like" activity (hydrolysis of Suc-LLVY-MCA), comparison of four HIV-1 protease inhibitors: different batch of purified proteasomes, increasing concentrations. How it is done: FIGS. 4B, 4C and 4D show the hydrolysis of the fluorogenic substrate (100 μM Suc-LLVY-MCA, 100 μM (Z)-GGL-MCA and 400 μM Bz-VGR-MCA) of the 20S proteasomes isolated from murine B8 fibroblasts, as a function of variable concentrations of ritonavir and of LLnL (N-acetyl-L-leucinyl-L-leucinal-L-norleucinal, known inhibitor of the proteasome). The results are reported for one hour of digestion with the 20S proteasome (500 ng) in a final volume of 100 μl. The values were located in a linear detection domain and are the mean values of triplicates with standard errors of less than 3%.
The hydrolysis of Suc-LLVY-MCA by the 20S murine proteasomes was tested according to the method described in Example 4.2. under identical conditions except for the fact that a different batch of purified proteasomes was used. The hydrolysis of Suc-LLVY-MCA was measured in the presence of increasing concentrations of ritonavir, nelfinavir (Roche), saquinavir (mesylate) and indinavir (active ingredient of Crixivan® marketed by Merck and Sharp and Dohme). The HIV protease inhibitors were dissolved beforehand in ethanol, methanol, DMSO and water respectively, for use in vitro (FIG. 4E).

Data set [2] deals with cytotoxic T lymphocytes. It is filed as in vivo, C57BL/6 mice. To be noted: for swelling of the footpad after injection of LCMV: mice infected in the footpad with LCMV-WE, swelling after seven to eight days.
For data set [3], the system named is cytotoxic T lymphocytes. It is filed as in vivo, C57BL/6 mice. Particulars: splenocytes eight days after i.v. LCMV-WE; EL4 cells sensitized with GP33-41 or NP peptide.
Data set [4] has as its system HCV.
Where [5] appears, read: 100 μM substrate, one hour digestion, 500 ng 20S proteasome.
[6] abbreviates: patients with hepatic cytolysis (cytolysis +).
Where [7] appears, read: patients without hepatic cytolysis (cytolysis −).

Structures can show the parent of a compound that is named as a salt. Where two headings read alike, the source gives them in different places.

Regarding `CC(C)(C)NC(=O)[C@@H]1C[C@@H]2CCCC[C@@H]2CN1C[C@@H](O)[C@H](Cc1ccccc1)NC(=O)[C@H](CC(N)=O)NC(=O)c1ccc2ccccc2n1` [saquinavir mesylate], the “"chimotrypsin-like" activity (hydrolysis of Suc-LLVY-MCA), comparison of four HIV-1 protease inhibitors” value in data set [1] is reported as “inhibits”.
On to `CC(C)(C)NC(=O)[C@@H]1C[C@@H]2CCCC[C@@H]2CN1C[C@@H](O)[C@H](Cc1ccccc1)NC(=O)[C@H](CC(N)=O)NC(=O)c1ccc2ccccc2n1` [saquinavir], for which the “inhibition of the swelling of the footpads” value in data set [2] (7th day after the treatment, oral dose of 4 mg per day) is on record as “up to 73%”. Besides, in data set [1] (summary statement), the “"chymotrypsin-like" activity of the proteasome” value is “inhibited” and the “"trypsin" activity of the proteasome” value is recorded as “increased”.
As for `Cc1c(O)cccc1C(=O)N[C@@H](CSc1ccccc1)[C@H](O)CN1C[C@H]2CCCC[C@H]2C[C@H]1C(=O)NC(C)(C)C` [nelfinavir], the “swelling of the footpad after injection of LCMV” value in data set [2] is given as “not inhibited”. Also, in data set [3], the “lysis of the target cells (direct lysis ex vivo after systemic infection)” value is reported as “not inhibited”. The “"chimotrypsin-like" activity (hydrolysis of Suc-LLVY-MCA), comparison of four HIV-1 protease inhibitors” value in data set [1] is “no inhibition”.
Take “N-acetyl-L-leucinyl-L-leucinal-L-norleucinal [LLnL]”: in data set [1] (setting [5]), the “hydrolysis of the fluorogenic substrate Suc-LLVY-MCA” value is listed as “inhibits in a similar manner” and the “hydrolysis of the substrate (Z)-GGL-MCA” value is “inhibits in a similar manner”. The “cleavage of the substrate Bz-VGR-MCA ("trypsin" type activity)” value in data set [1] (400 μM substrate, one hour digestion, 500 ng 20S proteasome) is listed as “inhibits in a similar manner”.
With `CC(C)(C)NC(=O)[C@@H]1CN(Cc2cccnc2)CCN1C[C@@H](O)C[C@@H](Cc1ccccc1)C(=O)N[C@H]1c2ccccc2C[C@H]1O` [indinavir], the “swelling of the footpad after injection of LCMV” value in data set [2] is “not inhibited”. Further, in data set [3], the “lysis of the target cells (direct lysis ex vivo after systemic infection)” value is “not inhibited”. Also, the “"chimotrypsin-like" activity (hydrolysis of Suc-LLVY-MCA), comparison of four HIV-1 protease inhibitors” value in data set [1] was “no inhibition”. Further, the anti-HCV antibody titre entry in data set [4] (during the therapy) is “No increase”. Further, the “patients in whom the ALAT concentrations increased” value in data set [4] (patients coinfected with HCV and HIV) is recorded as 10%. In addition, in data set [4] (setting [6]), the “Ac index (variation of anti-HCV antibody titre, ratio of the optical densities)” value was determined as 0.98; the “variation of CD4” value worked out at 29.5 cells /mm^3; the “variation of CD8” value is on record as 203.5 cells /mm^3; the “variation of HCV-VL (viral HCV load)” value is recorded as 2.25 log10 of copies of RNA/ml. Moreover, in data set [4] (setting [7]), the “Ac index (variation of anti-HCV antibody titre, ratio of the optical densities)” value is 1.01(+/−0.13); the “variation of CD4” value was 21.1(+/−68) cells /mm^3; the “variation of CD8” value is on record as 9.2(+/−222) cells /mm^3; the “variation of HCV-VL (viral HCV load)” value is listed as “+0.41 log10 of copies of RNA/ml”. Moreover, the “variation of HCV-VL (viral HCV load)” value in data set [4] (patients without hepatic cytolysis (cytolysis −), listed as IDN) was 0.41(+/−0.79) log10 of copies of RNA/ml.
